According to paper PMC3914206:

Assays:
Format in all cases: binding
panel of 442 kinases [1] = molecular target: T1, panel of 442 kinases (Homo sapiens, UniProt Q9H3Y6); details: kinase SRMS; compound concentration 10 µM
T1 construct: purchased KINOMEscan
Description: (§1) We assessed the selectivity of members of this scaffold using the KINOMEscan methodology across a near comprehensive panel of 442 kinases [[18,27]].

panel of 442 kinases [2] = molecular target: T2, panel of 442 kinases (Homo sapiens, UniProt Q02779); details: Compound Concentration 10 µM
T2 construct: purchased KINOMEscan
Description: as §1

panel of 442 kinases [3] = molecular target: T3, panel of 442 kinases (Homo sapiens, UniProt Q8IW41); details: Compound Concentration 10 µM
T3 construct: purchased KINOMEscan
T3 sequence (Q8IW41 1-473): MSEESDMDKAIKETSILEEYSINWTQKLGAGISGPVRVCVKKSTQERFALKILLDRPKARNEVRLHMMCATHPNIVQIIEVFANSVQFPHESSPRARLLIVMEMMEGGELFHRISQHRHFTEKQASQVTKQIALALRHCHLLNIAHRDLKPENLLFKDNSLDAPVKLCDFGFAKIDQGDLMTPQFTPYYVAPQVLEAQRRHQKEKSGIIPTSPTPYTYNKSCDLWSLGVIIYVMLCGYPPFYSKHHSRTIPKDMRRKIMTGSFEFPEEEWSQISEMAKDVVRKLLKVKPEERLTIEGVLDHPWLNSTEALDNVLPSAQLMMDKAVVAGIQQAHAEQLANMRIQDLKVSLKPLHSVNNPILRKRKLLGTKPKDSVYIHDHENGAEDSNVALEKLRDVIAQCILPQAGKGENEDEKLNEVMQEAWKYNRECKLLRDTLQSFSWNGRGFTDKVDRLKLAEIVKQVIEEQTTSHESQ
Description: as §1

T2 sequence (Q02779 whole entry): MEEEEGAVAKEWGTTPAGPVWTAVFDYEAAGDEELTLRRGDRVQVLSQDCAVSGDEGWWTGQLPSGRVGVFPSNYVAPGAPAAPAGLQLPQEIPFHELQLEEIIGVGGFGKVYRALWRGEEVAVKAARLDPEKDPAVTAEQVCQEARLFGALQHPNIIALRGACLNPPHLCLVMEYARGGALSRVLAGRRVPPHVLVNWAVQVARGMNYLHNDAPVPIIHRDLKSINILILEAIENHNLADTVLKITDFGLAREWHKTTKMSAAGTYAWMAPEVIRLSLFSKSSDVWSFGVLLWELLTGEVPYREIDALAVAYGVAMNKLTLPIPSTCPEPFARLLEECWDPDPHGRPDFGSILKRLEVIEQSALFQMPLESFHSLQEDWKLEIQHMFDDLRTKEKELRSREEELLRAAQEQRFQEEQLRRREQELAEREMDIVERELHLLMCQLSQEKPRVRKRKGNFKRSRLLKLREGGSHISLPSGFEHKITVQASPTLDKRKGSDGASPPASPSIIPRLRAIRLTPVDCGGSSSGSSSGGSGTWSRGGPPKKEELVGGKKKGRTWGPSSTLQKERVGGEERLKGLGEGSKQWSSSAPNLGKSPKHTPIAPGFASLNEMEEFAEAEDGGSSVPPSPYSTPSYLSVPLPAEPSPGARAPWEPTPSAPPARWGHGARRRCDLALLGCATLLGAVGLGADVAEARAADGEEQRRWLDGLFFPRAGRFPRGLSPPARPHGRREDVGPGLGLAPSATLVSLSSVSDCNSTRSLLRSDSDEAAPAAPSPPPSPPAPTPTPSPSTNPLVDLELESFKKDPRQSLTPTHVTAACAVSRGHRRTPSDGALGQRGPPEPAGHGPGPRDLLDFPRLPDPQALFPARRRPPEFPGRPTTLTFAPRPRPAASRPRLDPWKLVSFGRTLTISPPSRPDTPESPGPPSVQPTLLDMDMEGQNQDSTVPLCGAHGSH
T1 sequence (Q9H3Y6 whole entry): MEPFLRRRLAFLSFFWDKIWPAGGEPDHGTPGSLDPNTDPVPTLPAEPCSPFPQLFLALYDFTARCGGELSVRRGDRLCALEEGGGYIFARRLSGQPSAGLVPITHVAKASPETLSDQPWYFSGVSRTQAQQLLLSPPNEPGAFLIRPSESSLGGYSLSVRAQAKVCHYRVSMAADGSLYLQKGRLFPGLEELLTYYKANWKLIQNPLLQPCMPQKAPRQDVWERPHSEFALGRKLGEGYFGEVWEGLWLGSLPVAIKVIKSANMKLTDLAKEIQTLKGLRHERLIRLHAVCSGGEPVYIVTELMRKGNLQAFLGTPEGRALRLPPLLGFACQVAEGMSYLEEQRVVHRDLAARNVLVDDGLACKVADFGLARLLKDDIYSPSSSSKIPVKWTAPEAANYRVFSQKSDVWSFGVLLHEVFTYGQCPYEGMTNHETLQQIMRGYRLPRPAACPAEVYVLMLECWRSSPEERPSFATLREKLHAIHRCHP

COc1cc(C(=O)N2CCC(N3CCN(C)CC3)CC2)ccc1Nc1ncc2c(n1)N1CCc3cccc(c31)C(=O)N2C [Compound 24]
% Ctrl, SRMS (panel of 442 kinases [1]): 100 % Ctrl
KINOMEscan: MLK2 (panel of 442 kinases [2]): 98

CCOc1cc(C(=O)N2CCC(N3CCN(C)CC3)CC2)ccc1Nc1ncc2c(n1)N(C1CCCC1)c1ccccc1C(=O)N2C [Compound 26]
KINOMEscan: MAPKAPK5 (panel of 442 kinases [3]): 100
% Ctrl, SRMS (panel of 442 kinases [1]): 82 % Ctrl
KINOMEscan: MLK2 (panel of 442 kinases [2]): 100

COc1cc(C(=O)N2CCC(N3CCN(C)CC3)CC2)ccc1Nc1ncc2c(n1)N(C1CCCC1)c1ccccc1C(=O)N2C [Compound 25, 11-cyclopentyl-2-((2-methoxy-4-(4-(4-methylpiperazin-1-yl)piperidine-1-carbonyl)phenyl)amino)-5-methyl-5H-benzo[e]pyrimido[5,4-b][1,4]diazepin-6(11H)-one]
KINOMEscan: MAPKAPK5 (panel of 442 kinases [3]): 96
% Ctrl, SRMS (panel of 442 kinases [1]): 100 % Ctrl
KINOMEscan: MLK2 (panel of 442 kinases [2]): 96

COc1cc(C(=O)N2CCC(N3CCN(C)CC3)CC2)ccc1Nc1ncc2c(n1)N(C)c1ccccc1C(=O)N2C [15 (LRRK2-IN-1)]
KINOMEscan: MAPKAPK5 (panel of 442 kinases [3]): 97
% Ctrl, SRMS (panel of 442 kinases [1]): 77 % Ctrl
KINOMEscan: MLK2 (panel of 442 kinases [2]): 100
